Several values for one entry are separate records, joined by “and”; a condition that tells them apart may be missing. Equal values may be shown once. One block for each molecule: values may come before it.
How the values were obtained:
[1] = GFR and ERPF-Long Renal Clearance (iothalamate and PAH continuous infusion): iothalamate concentration and GFR; format: in vivo; parameters: CE GFR / MS GFR: unit not given here; settings: one human subject; for CE GFR: corrected GFR per collection period from CE-UV; for CE GFR / MS GFR / Urine iothalamate concentration, CE / Urine iothalamate concentration, MS: continuous infusion; for MS GFR: corrected GFR per collection period from LC-MS/MS; for Plasma iothalamate concentration, CE / Plasma iothalamate concentration, MS: timed plasma collections P1-P6, continuous intravenous infusion; for Plasma iothalamate concentration, CE / Urine iothalamate concentration, CE: CE-UV; for Plasma iothalamate concentration, MS / Urine iothalamate concentration, MS: LC-MS/MS; for Urine iothalamate concentration, CE / Urine iothalamate concentration, MS: timed urine collections U1-U5
Method: For example, GFR can be calculated according to Formula I.
where UIoth is the concentration of iothalamate in urine, V is the urine flow rate (volume per unit of time), and PIoth is the plasma concentration during the urine collection period.
For the simultaneous determination of GFR and ERPF, iothalamate (Conray®, Mallinckrodt Inc. St. Louis, Mo.) and PAH (Aminohippurate Sodium, Merck & Co. Inc. Whitehouse Station, N.J.) were administered intravenously to one human subject. Iothalamate and PAH were administered using previously described constant infusion protocol. […] Blood samples were collected in tubes containing heparin or EDTA. Blood samples were centrifuged at 650 g for 7 minutes to separate plasma. Plasma was collected and stored at 4° C. to 8° C. Urine samples were collected and stored at 4° C. to 8° C. Frozen plasma and urine samples were thawed and stored at 4° C. to 8° C. until analysis.
The timed plasma collections (100 μL of each) were processed independently by diluting 1:3 with water followed by the addition of internal standard, D3-iothalamate and D4-PAH (20 μL of 38 μg/mL stock). The urine samples were diluted 1:10 with water and followed by the addition of internal standard, D3-iothalamate. All urine and plasma samples were then subjected to acetonitrile and/or 70% acetone polypeptide precipitation (100 μL) followed by centrifugation for 5 minutes at 650 g to remove/pellet protein. […]

[2] = GFR and ERPF-Long Renal Clearance (iothalamate and PAH continuous infusion): PAH concentration and ERPF; format: in vivo; parameters: CE ERPF / MS ERPF: unit not given here; settings: one human subject
Method: ERPF can be calculated according to Formula II.
Blood samples were collected in tubes containing heparin or EDTA. Blood samples were centrifuged at 650 g for 7 minutes to separate plasma. Plasma was collected and stored at 4° C. to 8° C. Urine samples were collected and stored at 4° C. to 8° C. Frozen plasma and urine samples were thawed and stored at 4° C. to 8° C. until analysis.
The urine samples were diluted 1:10 with water and followed by the addition of internal standard, D3-iothalamate. All urine and plasma samples were then subjected to acetonitrile and/or 70% acetone polypeptide precipitation (100 μL) followed by centrifugation for 5 minutes at 650 g to remove/pellet protein. […]

CE GFR ([1]; collection period P1): 138
CE GFR ([1]; collection period P2): 127
CE GFR ([1]; collection period P3): 123
CE GFR ([1]; collection period P4): 114
CE GFR ([1]; collection period P5): 119
MS GFR ([1]; collection period P1): 141
MS GFR ([1]; collection period P2): 114
MS GFR ([1]; collection period P3): 120
MS GFR ([1]; collection period P4): 116
MS GFR ([1]; collection period P5): 119
Plasma iothalamate concentration, CE ([1]; plasma collection P1): 11.645 µg/mL
Plasma iothalamate concentration, CE ([1]; plasma collection P2): 9.479 µg/mL
Plasma iothalamate concentration, CE ([1]; plasma collection P3): 8.341 µg/mL
Plasma iothalamate concentration, CE ([1]; plasma collection P4): 7.334 µg/mL
Plasma iothalamate concentration, CE ([1]; plasma collection P5): 6.869 µg/mL
Plasma iothalamate concentration, CE ([1]; plasma collection P6): 6.912 µg/mL
Plasma iothalamate concentration, MS ([1]; plasma collection P1): 10.6 µg/mL
Plasma iothalamate concentration, MS ([1]; plasma collection P2): 9.09 µg/mL
Plasma iothalamate concentration, MS ([1]; plasma collection P3): 7.93 µg/mL
Plasma iothalamate concentration, MS ([1]; plasma collection P4): 8.21 µg/mL
Plasma iothalamate concentration, MS ([1]; plasma collection P5): 7.12 µg/mL
Plasma iothalamate concentration, MS ([1]; plasma collection P6): 6.43 µg/mL
Urine iothalamate concentration, CE ([1]; urine collection U1): 12.973 µg/mL
Urine iothalamate concentration, CE ([1]; urine collection U2): 9.189 µg/mL
Urine iothalamate concentration, CE ([1]; urine collection U3): 8.069 µg/mL
Urine iothalamate concentration, CE ([1]; urine collection U4): 7.716 µg/mL
Urine iothalamate concentration, CE ([1]; urine collection U5): 7.333 µg/mL
Urine iothalamate concentration, MS ([1]; urine collection U1): 12.4 µg/mL
Urine iothalamate concentration, MS ([1]; urine collection U2): 7.85 µg/mL
Urine iothalamate concentration, MS ([1]; urine collection U3): 8.09 µg/mL
Urine iothalamate concentration, MS ([1]; urine collection U4): 8.5 µg/mL
Urine iothalamate concentration, MS ([1]; urine collection U5): 7.21 µg/mL
Compound: CNC(=O)c1c(I)c(NC(C)=O)c(I)c(C(=O)O)c1I [Iothalamate, iothalamate]

MS ERPF ([2]; ERPF per collection period from LC-MS/MS, continuous infusion): 586 and 514 and 532 and 602 and 566
CE ERPF ([2]; ERPF per collection period, CE, continuous infusion): 574 and 534 and 523 and 615 and 543
Urine PAH concentration, CE ([2]; timed urine collections U1-U5, CE, continuous infusion): 97.620 µg/mL
Compound: Nc1ccc(C(=O)NCC(=O)O)cc1 [PAH, p-aminohippuric acid]
Plasma PAH concentration, CE ([2]; timed plasma collections P1-P6, CE, continuous intravenous infusion): 17.755 µg/mL and 17.120 µg/mL and 17.740 µg/mL and 18.320 µg/mL and 18.000 µg/mL and 17.635 µg/mL
Plasma PAH concentration, MS ([2]; timed plasma collections P1-P6, LC-MS/MS, continuous intravenous infusion): 18.3 µg/mL and 18 µg/mL and 18.7 µg/mL and 18.9 µg/mL and 19.4 µg/mL and 17.9 µg/mL

From patent publication US20120001065A1, “EVALUATING RENAL FUNCTION” (Mayo Foundation for Medical Education and Rsearch, priority 2009, published 2012)
